Assay results reported in the supplement of paper PMC10307832.

Key:
Assay in all cases: relative viability (nuclei count vs DMSO), 5 days (fraction); higher = more cells survive
Idelalisib + OSI-027 = compound: CC[C@H](Nc1ncnc2[nH]cnc12)c1nc2cccc(F)c2c(=O)n1-c1ccccc1 [Idelalisib] + COc1cccc2cc(-c3nc([C@H]4CC[C@H](C(=O)O)CC4)n4ncnc(N)c34)[nH]c12 [OSI-027] (partner 0.5 µM)
Procedure, shortened: (§1)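 Dosing by pin tool came one day after lung cancer cell lines were seeded in 1536-well plates, using either one drug or a fixed anchor-drug dose plus five library-drug doses (not always all listed) in √10 steps. After 5 days, nuclei were counted on 4× images. Relative viability is treated-well nuclei count divided by vehicle-well nuclei count, and values are medians of duplicate plates.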

Idelalisib + Alpelisib = compound: CC[C@H](Nc1ncnc2[nH]cnc12)c1nc2cccc(F)c2c(=O)n1-c1ccccc1 [Idelalisib] + Cc1nc(NC(=O)N2CCC[C@H]2C(N)=O)sc1-c1ccnc(C(C)(C)C(F)(F)F)c1 [Alpelisib] (partner 2 µM)
Procedure, shortened: as §1

Idelalisib + Pemetrexed = compound: CC[C@H](Nc1ncnc2[nH]cnc12)c1nc2cccc(F)c2c(=O)n1-c1ccccc1 [Idelalisib] + Nc1nc2[nH]cc(CCc3ccc(C(=O)N[C@@H](CCC(=O)O)C(=O)O)cc3)c2c(=O)[nH]1 [Pemetrexed] (partner 0.2 µM)
Procedure, shortened: as §1

Idelalisib + Olaparib = compound: CC[C@H](Nc1ncnc2[nH]cnc12)c1nc2cccc(F)c2c(=O)n1-c1ccccc1 [Idelalisib] + O=C(c1cc(Cc2n[nH]c(=O)c3ccccc23)ccc1F)N1CCN(C(=O)C2CC2)CC1 [Olaparib] (partner 8 µM)
Procedure, shortened: as §1

Cell Line	relative viability (Idelalisib + OSI-027; first compound 0.04 µM)	relative viability (Idelalisib + OSI-027; first compound 0.1265 µM)	relative viability (Idelalisib + OSI-027; first compound 0.4 µM)	relative viability (Idelalisib + OSI-027; first compound 1.265 µM)	relative viability (Idelalisib + OSI-027; first compound 4 µM)	relative viability (Idelalisib + Alpelisib; first compound 0.04 µM)	relative viability (Idelalisib + Alpelisib; first compound 0.1265 µM)	relative viability (Idelalisib + Alpelisib; first compound 0.4 µM)	relative viability (Idelalisib + Alpelisib; first compound 1.265 µM)	relative viability (Idelalisib + Alpelisib; first compound 4 µM)	relative viability (Idelalisib + Pemetrexed; first compound 0.04 µM)	relative viability (Idelalisib + Pemetrexed; first compound 0.1265 µM)	relative viability (Idelalisib + Pemetrexed; first compound 0.4 µM)	relative viability (Idelalisib + Pemetrexed; first compound 1.265 µM)	relative viability (Idelalisib + Pemetrexed; first compound 4 µM)	relative viability (Idelalisib + Olaparib; first compound 0.04 µM)	relative viability (Idelalisib + Olaparib; first compound 0.1265 µM)	relative viability (Idelalisib + Olaparib; first compound 0.4 µM)	relative viability (Idelalisib + Olaparib; first compound 1.265 µM)	relative viability (Idelalisib + Olaparib; first compound 4 µM)
SK-MES-1	0.666	0.611	0.427	0.218	0.467	0.837	0.913	0.753	0.715	0.574	0.993	0.997	0.878	0.433	0.909	0.736	0.711	0.679	0.636	0.448
NCI-H2023	0.473	0.339	0.285	0.278	0.313	0.693	0.564	0.524	0.494	0.313	0.244	0.239	0.212	0.169	0.256	0.463	0.495	0.542	0.436	0.472
COR-L 105	0.739	0.629	0.505	0.725	0.579	1.05	1.08	0.855	0.83	0.586	1.18	1.1	0.913	1.06	0.924	0.628	0.638	0.656	0.715	0.666
NCI-H838	0.416	0.346	0.271	0.453	0.317	0.902	1.02	0.914	0.957	0.818	0.253	0.238	0.225	0.237	0.257	0.779	0.794	0.745	0.775	0.564
SW 1573	0.625	0.656	0.518	0.492	0.531	0.822	0.612	0.711	0.729	0.633	0.825	0.848	0.802	0.702	0.739	0.465	0.426	0.364	0.521	0.431
